{"source": "PubChem BioAssay (NCI)", "test_in_all_cases": "NCI tumour cell line growth inhibition, 48 h", "key": {"HT29 colon": {"tested_on": "HT29 colon"}, "COLO 205 colon": {"tested_on": "COLO 205 colon"}, "HCT-15 colon": {"tested_on": "HCT-15 colon"}, "786-0 renal": {"tested_on": "786-0 renal"}, "MOLT-4 leukemia": {"tested_on": "MOLT-4 leukemia"}, "CAKI-1 renal": {"tested_on": "CAKI-1 renal"}, "SF-295 CNS": {"tested_on": "SF-295 CNS"}, "SW-620 colon": {"tested_on": "SW-620 colon"}, "CCRF-CEM leukemia": {"tested_on": "CCRF-CEM leukemia"}, "SK-OV-3 ovarian": {"tested_on": "SK-OV-3 ovarian"}, "UACC-257 melanoma": {"tested_on": "UACC-257 melanoma"}, "MDA-MB-435": {"tested_on": "MDA-MB-435"}, "NCI-H23 lung": {"tested_on": "NCI-H23 lung"}, "PC-3 prostate": {"tested_on": "PC-3 prostate"}, "HOP-92 NSCLC": {"tested_on": "HOP-92 NSCLC"}, "KM12 colon": {"tested_on": "KM12 colon"}, "EKVX NSCLC": {"tested_on": "EKVX NSCLC"}}, "note": "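Exposure lasted 48 hours, with cells grown in 96-well plates and compounds tested at five concentrations. Abbreviation: GI50, concentration required for 50% inhibition of growth. TGI: total growth inhibition.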", "data": [{"smiles": "CCN(CC)Cc1cc(Nc2ccnc3cc(Cl)ccc23)cc(-c2ccc(Cl)cc2)c1O", "values": [{"measurement": "GI50", "setting": "HT29 colon", "value": 1880, "unit": "nM"}, {"measurement": "TGI", "setting": "HT29 colon", "value": "> 100000", "unit": "nM"}, {"measurement": "GI50", "setting": "COLO 205 colon", "value": 3050, "unit": "nM"}, {"measurement": "TGI", "setting": "COLO 205 colon", "value": "> 100000", "unit": "nM"}, {"measurement": "GI50", "setting": "HCT-15 colon", "value": 577, "unit": "nM"}, {"measurement": "TGI", "setting": "HCT-15 colon", "value": "> 100000", "unit": "nM"}, {"measurement": "GI50", "setting": "786-0 renal", "value": 1840, "unit": "nM"}, {"measurement": "TGI", "setting": "786-0 renal", "value": "> 100000", "unit": "nM"}, {"measurement": "GI50", "setting": "MOLT-4 leukemia", "value": 485, "unit": "nM"}, {"measurement": "TGI", "setting": "MOLT-4 leukemia", "value": "> 100000", "unit": "nM"}, {"measurement": "GI50", "setting": "CAKI-1 renal", "value": 907, "unit": "nM"}, {"measurement": "TGI", "setting": "CAKI-1 renal", "value": "> 100000", "unit": "nM"}, {"measurement": "GI50", "setting": "SF-295 CNS", "value": 1390, "unit": "nM"}, {"measurement": "TGI", "setting": "SF-295 CNS", "value": "> 100000", "unit": "nM"}, {"measurement": "GI50", "setting": "SW-620 colon", "value": 628, "unit": "nM"}, {"measurement": "TGI", "setting": "SW-620 colon", "value": "> 100000", "unit": "nM"}, {"measurement": "GI50", "setting": "CCRF-CEM leukemia", "value": 999, "unit": "nM"}, {"measurement": "TGI", "setting": "CCRF-CEM leukemia", "value": "> 100000", "unit": "nM"}, {"measurement": "GI50", "setting": "SK-OV-3 ovarian", "value": 3890, "unit": "nM"}, {"measurement": "TGI", "setting": "SK-OV-3 ovarian", "value": "> 100000", "unit": "nM"}, {"measurement": "GI50", "setting": "UACC-257 melanoma", "value": 1290, "unit": "nM"}, {"measurement": "TGI", "setting": "UACC-257 melanoma", "value": 4850, "unit": "nM"}, {"measurement": "GI50", "setting": "MDA-MB-435", "value": 989, "unit": "nM"}, {"measurement": "TGI", "setting": "MDA-MB-435", "value": "> 100000", "unit": "nM"}, {"measurement": "GI50", "setting": "NCI-H23 lung", "value": 704, "unit": "nM"}, {"measurement": "TGI", "setting": "NCI-H23 lung", "value": "> 100000", "unit": "nM"}, {"measurement": "GI50", "setting": "PC-3 prostate", "value": 771, "unit": "nM"}, {"measurement": "TGI", "setting": "PC-3 prostate", "value": "> 100000", "unit": "nM"}, {"measurement": "GI50", "setting": "HOP-92 NSCLC", "value": 434, "unit": "nM"}, {"measurement": "TGI", "setting": "HOP-92 NSCLC", "value": 3200, "unit": "nM"}, {"measurement": "GI50", "setting": "KM12 colon", "value": 3080, "unit": "nM"}, {"measurement": "TGI", "setting": "KM12 colon", "value": "> 100000", "unit": "nM"}, {"measurement": "GI50", "setting": "EKVX NSCLC", "value": 879, "unit": "nM"}, {"measurement": "TGI", "setting": "EKVX NSCLC", "value": "> 100000", "unit": "nM"}]}]}
